The target in assay [1] is T1, human α-thrombin (Homo sapiens, UniProt P00734).
T1 construct: Bovine and human α-thrombins were supplied by Haematologic Technologies Inc (VT, USA); cleaved off efficiently by thrombin to generate the free N-terminus of the A-chain of human thrombin; purchased Haematologic Technologies Inc (VT, USA)
Nature of the assay: Clotting assay: fibrinogen clotting by human thrombin, concentration doubling the clotting time (DCT) = IC50. Type of assay: biochemical. Here is the method: The clotting assays were carried out by use of the protocols described previously (DiMaio, J., Gibbs, B., Munn, D., Lefebvre, J., Ni, F., and Konishi, Y. (1990) J. Biol. Chem. 265, 21698-21703; and Witting, J. I., Bourdon, P., Brezniak, D. V., Maraganore, J. M., and Fenton, J. W. (1992) Biochem. J. 283 (Pt 3), 737-743) The assay employs bovine plasma fibrinogen dissolved at 0.1% in 50 mM Tris-Cl, 100 mM NaCl, 0.1% PEG-8000 at pH 7.6 (i.e. the clotting buffer). Each assay mixture contained a certain concentration of the peptide, and the reaction was started by the addition of human thrombin to a final concentration of 0.1 NIH unit/ml. Optical absorbance of the assay mixtures was measured at 420 nm and 37° C. using the Spectramax™ plate reader. The onset clotting time was determined as an intersection of the baseline and the initial slope of the O.D. change as a result of fibrin clot formation. The concentration of a peptide needed to double the clotting time (DCT) was defined as IC50. Peptide concentrations were determined by comparing the O.D.280 values of peptide stock solutions in the clotting buffer (vide supra) with the predicted extinction coefficient for each peptide (Gill, S. C. and von Hippel, P. H. (1989) Anal. Biochem. 182, 319-326).
The peptide concentration for doubling the clotting time (DCT) was defined as the IC50 value.

Assay [2] concerns the target T1, human α-thrombin. Nature of the assay: Inhibition of the amidolytic activity of thrombin (Tos-Gly-Pro-Arg-p-nitroanilide hydrolysis). Type of assay: biochemical. The conditions noted are these: for Ki: Amidolytic assay, 25° C. (Ki, nM), Tos-Gly-Pro-Arg-pNA, 25° C. As for the experimental part:
Kinetics of thrombin-catalyzed hydrolysis of the chromogenic substrate Tos-Gly-Pro-Arg-p-nitroanilide were followed by absorbance at 405 nm on a Spectramax plate reader thermostated at either 25° C. or 37° C. according to the method of Maragnore et al (supra). The concentrations of Tos-Gly-Pro-Arg-p-nitroanilide ranged from 2 to 400 μM. Initial rates were calculated under conditions of <15% hydrolysis of the total substrate. The KM and Vmax values were calculated accordingly and kcat values were determined by dividing Vmax by the enzyme (thrombin) concentration. The inhibition assays were performed in the clotting buffer with a certain fixed concentration of α-thrombin (˜0.3 nM) such that linear progress curves were achieved within at least 15 min in the absence of the inhibition. The total volume of the solution was fixed at 200 μl. Reactions were initiated by addition of the chromogenic substrate to the wells containing thrombin and a certain concentration of the peptide inhibitors premixed for less than 2 min. Alternatively, the substrate was first mixed with the peptide inhibitor and the total volume was adjusted to 120 μL using the clotting buffer. Eighty microliters of human α-thrombin in the clotting buffer (˜0.3 nM final concentration) was added to initiate the reaction. The concentration of the peptides ranged from 0.5 nM to 10 μM. Kinetics data from initial rate experiments were used to construct Lineweaver-Burke plot; i.e. the relationship of (substrate concentration)^−1 versus (initial velocity)^−1 which. were analysed by linear regression with MicroCal Origin 4.1 program (MicroCal, MD) or using the GraphPad Prism software. The Ki values of the inhibitors were determined using the equation: Ki=[I]/{(SL0/SL1)−1}, where
[I] is the inhibitor concentration,
SL0 is the slope of the reaction in the absence of inhibitors, and
SL1 is the slope of the reaction in the presence of the inhibitor.
Alternatively, Dixon plots of inverse velocity versus the inhibitor concentrations were generated with the Sigmaplot™ software. Every Dixon plot contained an array of data corresponding to different substrate concentrations and the Ki values were determined from the intersections. Following Peptide Cleavage by HPLC

Assay [3] addresses T1, human α-thrombin. Nature of the assay: Peptide cleavage by thrombin followed by HPLC. Type of assay: biochemical. As for the experimental part:
Previously reported methods (DiMaio, J., Gibbs, B., Munn; D., Lefebvre, J., Ni, F., and Konishi, Y. (1990) J. Biol. Chem. 265, 21698-21703; and Witting, J. I., Bourdon, P., Brezniak, D. V., Maraganore, J. M., and Fenton, J. W. (1992) Biochem. J. 283 (Pt 3), 737-743) were employed with some modifications (as detailed in the Results section and FIG. 18) to determine whether some bivalent peptides are cleaved by thrombin. Each peptide was dissolved in the clotting buffer at a final concentration of 2.0 μM and incubated at 25° C. with or without 2 μM of human α-thrombin for up to 40 hrs. The samples were then boiled for 2 min to stop the reaction, and centrifuged. The supernatant was acidified by addition of concentrated acetic acid before being loaded on an analytical HPLC C18 column and eluted with a linear gradient of 0%-50% (v/v) acetonitrile.
(§1) The FN22 peptide was incubated with thrombin at 25° C. in order to investigate the stability of the peptide in complex with thrombin. The progress of peptide cleavage by thrombin was monitored and analyzed through the HPLC profiles of the FN22 peptide in the absence or presence of thrombin for different incubation times. […] In the clotting assay, the FN22 peptide at a concentration of 400 nM was premixed with thrombin for different times of incubation before initiating the clotting reaction. […]

For assay [4], the target named is T1, human α-thrombin. Nature of the assay: Stability of peptides pre-incubated with thrombin, read by the clotting assay. Type of assay: biochemical. The note with it: 30 hrs of incubation, 25° C. As for the experimental part:
as §1, with “reaction. The cleavage of the peptide by thrombin is indicated by a reduced clotting time with increasing incubation times.” for “reaction.”
In FIG. 18C, curve (1) represents the clotting assay curve recorded for a freshly-prepared stock solution of thrombin in the absence of peptide inhibitors, curves (2) and (3) represent the clotting curves recorded under the same condition as in (1) except that thrombin stood at 4° C. and 25° C., respectively, for 30 hrs, curves (4) and (5) represent the clotting curves recorded under the same condition as that in (3) except that the FN22 peptide (400 nM, curve 4) and FD22 (100 nM, curve 5) were mixed with thrombin during incubation, and curves (6) and (7) represent the clotting curves recorded under the same condition as that in (3) except that FN22 (400 nM, curve 6) and FD22 (100 nM, curve 7) were freshly-prepared intact peptides. […]

For assay [5], the target named is T1, human α-thrombin. Briefly: Digestion of 15N-labelled FD22 at the Arg(P1)-Pro(P1′) bond by human α-thrombin. Type of assay: biochemical. The conditions noted are these: ~1 mM 15N-labelled peptide, 5 μM human α-thrombin. Here is the method:
After the peptide was incubated with thrombin at 25° C. for 40 hrs, around 90% of the intact FD22 peptide still remained as shown by use of HPLC analysis (FIG. 18B). In the clotting assay, the FD22 peptide at 100 nM was premixed with thrombin for different times before initiation of clotting. The peptide thus prepared had the clotting time reduced by only 12% after 30 hrs of incubation with thrombin. Indeed, the ^15N-labelled FD22 with a concentration of ˜1 mM (FIG. 16D) was digested completely at the Arg(P1)-Pro(P1′) bond by a 5 μM concentration of human α-thrombin only after more than 60 hrs of incubation.

Assay [6] addresses T1, human α-thrombin. The note with it: data from the published reports of DiMaio and Maraganore; read-out: Clotting assay, 37° C. (IC50); cited from earlier work.
Assay [7] deals with T1, human α-thrombin. The note with it: data from the published reports of DiMaio and Maraganore; read-out: Amidolytic assay (Ki); cited from earlier work.

Several values for one entry are separate records, joined by “and”; a condition that tells them apart may be missing. Equal values may be shown once. Read-outs that look alike come from different tables or passages of the source.

Turning to `CC[C@H](C)[C@H](NC(=O)[C@H](CCC(=O)O)NC(=O)[C@H](CCC(=O)O)NC(=O)[C@H](Cc1ccccc1)NC(=O)[C@H](CC(=O)O)NC(=O)CNC(=O)[C@H](CC(=O)O)NC(=O)[C@H](CC(N)=O)NC(=O)[C@H](Cc1c[nH]cn1)NC(=O)[C@H](CO)NC(=O)[C@H](CCC(N)=O)NC(=O)[C@@H]1CCCN1C(=O)[C@H](CCCNC(=N)N)NC(=O)[C@@H]1CCCN1C(=O)[C@H](CC(=O)O)NC(=O)[C@@H](N)Cc1ccccc1)C(=O)N1CCC[C@H]1C(=O)N[C@@H](CCC(=O)O)C(=O)N[C@@H](CCC(=O)O)C(=O)N[C@@H](Cc1ccc(O)cc1)C(=O)N[C@@H](CC(C)C)C(=O)N[C@@H](CCC(N)=O)C(=O)O` [FD22], in assay [1], the IC50 was ~50 nM and 45 nM and ~45 nM. Moreover, in assay [2], the Ki was ~55 nM. Besides, the intact peptide remaining result in assay [3] (incubated with thrombin at 25° C. for 40 hrs) is recorded as “around 90%”. Further, in assay [4] (peptide 100 nM premixed with thrombin), the “reduction of clotting time” value came out at 12%. For the same compound, in assay [5], the “incubation time until complete digestion at the Arg(P1)-Pro(P1′) bond” value is on record as “more than 60 hrs”.

In the case of `CC[C@H](C)[C@H](NC(=O)[C@H](CCC(=O)O)NC(=O)[C@H](CCC(=O)O)NC(=O)[C@H](Cc1ccccc1)NC(=O)[C@H](CC(=O)O)NC(=O)CNC(=O)[C@H](CC(=O)O)NC(=O)[C@H](CC(N)=O)NC(=O)[C@H](Cc1c[nH]cn1)NC(=O)[C@H](CO)NC(=O)[C@H](CCC(N)=O)NC(=O)[C@@H]1CCCN1C(=O)[C@H](CCCNC(=N)N)NC(=O)[C@@H]1CCCN1C(=O)[C@H](CC(N)=O)NC(=O)[C@@H](N)Cc1ccccc1)C(=O)N1CCC[C@H]1C(=O)N[C@@H](CCC(=O)O)C(=O)N[C@@H](CCC(=O)O)C(=O)N[C@@H](Cc1ccc(O)cc1)C(=O)N[C@@H](CC(C)C)C(=O)N[C@@H](CCC(N)=O)C(=O)O` [FN22], the Ki in assay [2] was found to be 80 ± 10 nM. The “kcat in the presence of the peptide” value in assay [2] (FN22 at 80 μM, 130 without peptide) came out at 115 s⁻¹. Moreover, in assay [2] (substrate concentrations near the KM), the mode of inhibition result is given as “competitive”. The “peptide cleaved by thrombin” value in assay [3] (2.0 μM peptide, 2.0 μM human α-thrombin, 25° C., after 40 hours) is listed as “about 30%”. Also, the “reduction of clotting time compared to the control” value in assay [4] (peptide 400 nM premixed with thrombin) is listed as 41%.

With dFPRPQSHNDGDFEEIPEEYL [P53^(e)], the IC50 in assay [6] is 4.1 ± 0.8 nM. Also, the Ki in assay [7] is 2.8 ± 0.9 nM.

Values taken from patent US7456152B2, “Peptide inhibitors of thrombin as potent anticoagulants” (priority 2004, dated 2008).
